Assay: Stability of the five analytes in rat plasma
Assay type: in vitro ADME
Conditions: rat plasma, n = 6; for Long-term stability, Mean: 4 weeks at −80 °C; for Short-term stability, Mean: 5 h at room temperature (25 °C); for Auto-sampler stability, Mean: 24 h in the autosampler at 4 °C; for Freeze-thaw stability, Mean: three freeze-thaw cycles from −20 °C to room temperature
Procedure: Stock standards of A5, A6, DSS, TFSA, TMCA and IS were prepared in methanol at a concentration of 1 mg/mL. A series of working standard solutions of the targeted compounds ranging from 10 to 20,000 ng/mL and the IS solution at 600 ng/mL were prepared by diluting the stock solutions with methanol and maintained at −20 °C. Calibration standards were freshly prepared by spiking the series of standard solutions (30 μL) including the IS into blank rat plasma (270 μL) to achieve concentrations of 1, 10, 50, 100, 500, 1000, 1600 and 2000 ng/mL. Quality control (QC) samples were prepared independently at low (2 ng/mL), medium (600 ng/mL) and high (1600 ng/mL) concentrations following the same method for the five compounds.
Stability studies included short-term stability (5 h at room temperature, i.e. 25 °C), freeze-thaw stability (three consecutive freeze-thaw cycles from −20 °C to room temperature), autosampler stability (24 h storage in the autosampler at 4 °C) and long-term stability (4 weeks storage at −80 °C). The stability data of all analytes are presented in Supplementary Table S4.

SMILES: COc1cc(C=CC(=O)O)cc(OC)c1OC [TMCA, 3,4,5-trimethoxycinnamic acid]
- Long-term stability, Mean (2 ng/mL): 98.3%
- Short-term stability, Mean (2 ng/mL): 96.2%
- Auto-sampler stability, Mean (2 ng/mL): 96.3%
- Freeze-thaw stability, Mean (2 ng/mL): 95.3%
- Long-term stability, Mean (600 ng/mL): 95.5%
- Short-term stability, Mean (600 ng/mL): 98.3%
- Auto-sampler stability, Mean (600 ng/mL): 99.8%
- Freeze-thaw stability, Mean (600 ng/mL): 97.3%
- Long-term stability, Mean (1600 ng/mL): 95.8%
- Short-term stability, Mean (1600 ng/mL): 102.5%
- Auto-sampler stability, Mean (1600 ng/mL): 99.5%
- Freeze-thaw stability, Mean (1600 ng/mL): 98.8%

Reference: PMC7534330, “UHPLC-MS/MS method for pharmacokinetic and bioavailability determination of five bioactive components in raw and various processed products of Polygala tenuifolia in rat plasma” (Pharmaceutical Biology, 2020)
